In US7189749B2, “Substituted phenoxyacetic acids” (The Institutes for Pharmaceutical Discovery LLC, priority 1999, dated 2007):
Like-named read-outs stand apart in the source and are kept apart here.

Assays:
[1] = molecular target: human aldose reductase (hALR2) (Homo sapiens, UniProt P15121); assay: inhibition of human aldose reductase (hALR2), methods similar to Butera et al.; assay type: biochemical
Protocol: Representative compounds of the invention were tested for their potency, selectivity and efficacy as inhibitors of human aldose reductase.

[2] = molecular target: T1, human aldehyde reductase (hALR1) (Homo sapiens, UniProt P14550); assay: inhibition of human aldehyde reductase (hALR1), methods essentially of Ishii et al.; assay type: biochemical; conditions: for IC50: concentration required to inhibit human aldehyde reductase activity by 50%; for hALR1/hALR2: ratio of hALR1 IC50 to hALR2 IC50, selectivity
T1 sequence (P14550 1-325): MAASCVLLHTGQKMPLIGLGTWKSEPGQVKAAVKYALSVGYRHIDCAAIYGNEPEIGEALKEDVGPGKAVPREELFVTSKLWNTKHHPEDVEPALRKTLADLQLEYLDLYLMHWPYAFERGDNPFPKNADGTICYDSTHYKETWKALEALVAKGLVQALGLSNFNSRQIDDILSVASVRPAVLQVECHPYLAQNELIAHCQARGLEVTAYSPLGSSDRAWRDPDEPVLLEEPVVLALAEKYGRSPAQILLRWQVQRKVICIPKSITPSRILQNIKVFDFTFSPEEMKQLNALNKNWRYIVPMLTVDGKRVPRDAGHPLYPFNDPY
Protocol: In a second assay, a number of the same compounds were tested for their ability to inhibit aldehyde reductase (hAR1), a structurally related enzyme. […] Using this assay, the concentrations required to inhibit human aldehyde reductase activity by 50% (ICSO) were determined.
Since high potency of test compounds as inhibitors of aldose reductase is desirable, low hALR2 IC50 values are sought. On the other hand, high potency of test compounds as inhibitors of aldehyde reductase is undesirable, and high hALR1 IC50s values are sought. Accordingly, the hALR1/hALR2 ratio is used to determine the selectivity of the test compounds.

[3] = concentration required to inhibit human aldose reductase activity by 50%

SMILES | IC50 [1, 3] [nM] | IC50 [2] [nM] | hALR1/hALR2 [2] | further results
O=C(O)COc1cc(Cl)ccc1C(=O)NCc1ccc(Br)cc1F [Example 1, [2-(4-Bromo-2-fluoro-benzylcarbamoyl)-5-chloro-phenoxy]-acetic acid] | 30 | 14000 | 470 | 
O=C(O)COc1cc(Cl)ccc1C(=O)NCc1cccc(C(F)(F)F)c1 [Example 4, [5-Chloro-2-(3-trifluoromethyl-benzylcarbamoyl)-phenoxy]-acetic acid] | 39 |  |  | 
O=C(O)COc1cc(Cl)ccc1C(=O)NCc1cccc([N+](=O)[O-])c1 [Example 5, [2-(3-Nitro-benzylcarbamoyl)-5-chloro-phenoxy]-acetic acid] |  |  | >4,200 | IC50 [1]: 6 nM; inhibition at 25 µM ([2]; read-out: hALR1 (aldehyde) % inhibition @ 25 μM): 19%
O=C(O)COc1cc(Cl)ccc1C(=O)NCc1cc(F)cc(C(F)(F)F)c1 [Example 11, [5-Chloro-2-(3-fluoro-5-trifluoromethyl-benzylcarbamoyl)-phenoxy]-acetic acid] | 29 |  |  | 
O=C(O)COc1cc(Cl)ccc1C(=O)NCc1ccc(Cl)c(Cl)c1 [Example 14, [5-Chloro-2-(3,4-dichloro-benzylcarbamoyl)-phenoxy]-acetic acid] | 34 | 18000 | 530 | 
O=C(O)COc1ccc(Cl)cc1C(=O)NCc1ccc(Br)cc1F [Example 17, [2-(4-Bromo-2-fluoro-benzylcarbamoyl)-4-chloro-phenoxy]-acetic acid] | 46 | 18000 | 390 | 
O=C(O)COc1ccc(F)cc1C(=O)NCc1ccc(Br)cc1F [Example 18, [2-(4-Bromo-2-fluoro-benzylcarbamoyl)-4-fluoro-phenoxy]-acetic acid] | 150 |  |  | 
O=C(O)COc1ccc(Br)cc1C(=O)NCc1ccc(Br)cc1F [Example 19, [4-Bromo-2-(4-bromo-2-fluoro-benzylcarbamoyl)-phenoxy]-acetic acid] | 64 |  |  | 
Cc1ccc(OCC(=O)O)c(C(=O)NCc2ccc(Br)cc2F)c1 [Example 20, [2-(4-Bromo-2-fluoro-benzylcarbamoyl)-4-methyl-phenoxy]-acetic acid] | 69 | 11000 | 160 | 
O=C(O)COc1ccc([N+](=O)[O-])cc1C(=O)NCc1ccc(Br)cc1F [Example 21, [2-(4-Bromo-2-fluoro-benzylcarbamoyl)-4-nitro-phenoxy]-acetic acid] | 200 |  |  | 
O=C(O)COc1ccccc1C(=O)NCc1ccc(Br)cc1F [Example 23, [2-(4-Bromo-2-fluoro-benzylcarbamoyl)-phenoxy]-acetic acid] | 180 |  |  | 
CSc1ccc(C(=O)NCc2ccc(Br)cc2F)c(OCC(=O)O)c1 [Example 24, [2-(4-Bromo-2-fluoro-benzylcarbamoyl)-5-methylsulfanyl-phenoxy]-acetic acid] | 83 |  |  | 
Cc1ccc(OCC(=O)O)c(C(=O)NCc2cccc([N+](=O)[O-])c2)c1 [Example 25, [2-(3-Nitro-benzylcarbamoyl)-4-methyl-phenoxy]-acetic acid] | 11 |  | >9,100 | inhibition at 100 µM ([2]; read-out: hALR1 (aldehyde) % inhibition @ 100 μM): 48%
O=C(O)COc1ccc(OC(F)(F)F)cc1C(=O)NCc1cccc([N+](=O)[O-])c1 [Example 26, [2-(3-nitro-benzylcarbamoyl)-4-trifluoromethoxy-phenoxy]-acetic acid] | 9 |  |  | 
O=C(O)COc1cc(F)ccc1C(=O)NCc1cccc([N+](=O)[O-])c1 [Example 27, [5-Fluoro-2-(3-nitro-benzylcarbamoyl)-phenoxy]-acetic acid] | 8 | 34000 | 4,300 | 
O=C(O)COc1cc(F)ccc1C(=O)NCc1ccc(Br)cc1F [Example 28, [2-(4-Bromo-2-fluoro-benzylcarbamoyl)-5-fluoro-phenoxy]-acetic acid] | 55 | 6600 | 120 | 
Cc1ccc(CNC(=O)c2ccc(F)cc2OCC(=O)O)cc1[N+](=O)[O-] [Example 29, [5-Fluoro-2-(4-methyl-3-nitro-benzylcarbamoyl)-phenoxy]-acetic acid] | 8 |  |  | 
O=C(O)COc1cc(F)c(F)cc1C(=O)NCc1ccc(Br)cc1F [Example 30, [2-(4-Bromo-2-fluoro-benzylcarbamoyl)-4,5-difluoro-phenoxy]-acetic acid] | 37 |  |  | 
O=C(O)COc1cc(F)ccc1C(=S)NCc1ccc(Br)cc1F [Example 33, [2-(4-Bromo-2-fluoro-benzylthiocarbamoyl)-5-fluoro-phenoxy]-acetic acid] | 34 | 33000 | 970 | 
O=C(O)COc1cc(F)ccc1C(=O)NCc1nc2c(F)c(F)cc(F)c2s1 [Example 54, {5-Fluoro-2[(4,5,7-trifluoro-benzothiazol-2-ylmethyl)carbamoyl]-phenoxy}-acetic acid] | 11 | 22000 | 2,000 | 
O=C(O)COc1cc(F)ccc1C(=O)NCc1nc2cc(C(F)(F)F)ccc2s1 [Example 56, {5-Fluoro-2-[(5-trifluoromethyl-benzothiazol-2-ylmethyl)-carbamoyl]-phenoxy}-acetic acid] | 29 | 22000 | 760 | 

The next lines start with results.

IC50 [1, 3] [nM] | IC50 [2] [nM] | hALR1/hALR2 [2] | SMILES | further results
6 | 35000 | 5,800 | O=C(O)COc1cc(F)ccc1C(=S)NCc1cccc([N+](=O)[O-])c1 [Example 32, [5-Fluoro-2-(3-nitro-benzylthiocarbamoyl)-phenoxy]-acetic acid] | 
37 |  |  | O=C(O)COc1ccc(Br)cc1C(=S)NCc1ccc(Br)cc1F [Example 34, [4-Bromo-2-(4-bromo-2-fluoro-benzylthiocarbamoyl)-phenoxy]-acetic acid] | 
12 |  |  | O=C(O)COc1ccc(OC(F)(F)F)cc1C(=S)NCc1cccc([N+](=O)[O-])c1 [Example 35, [2-(3-Nitro-benzylthiocarbamoyl)-4-trifluoromethoxy-phenoxy]-acetic acid] | 
33 |  |  | O=C(O)COc1cc(F)c(F)cc1C(=S)NCc1ccc(Br)cc1F [Example 36, [2-(4-Bromo-2-fluoro-benzylthiocarbamoyl)-4,5-difluoro-phenoxy]-acetic acid] | 
24 | 5800 | 240 | Cc1cc(C(=O)NCc2ccc(Br)cc2F)c(OCC(=O)O)cc1F [Example 45, [2-(4-Bromo-2-fluoro-benzylcarbamoyl)-5-fluoro-4-methyl-phenoxy]-acetic acid] | 
24 | 31000 | 1,300 | Cc1cc(C(=S)NCc2ccc(Br)cc2F)c(OCC(=O)O)cc1F [Example 46, [2-(4-Bromo-2-fluoro-benzylthiocarbamoyl)-5-fluoro-4-methyl-phenoxy]-acetic acid] | 
8 |  |  | Cc1cc(C(=O)NCc2cccc([N+](=O)[O-])c2)c(OCC(=O)O)cc1F [Example 47, [2-(3-Nitro-benzylcarbamoyl)-5-fluoro-4-methyl-phenoxy]-acetic acid] | 
7 |  |  | Cc1cc(C(=S)NCc2cccc([N+](=O)[O-])c2)c(OCC(=O)O)cc1F [Example 48, [2-(3-Nitro-benzylthiocarbamoyl)-5-fluoro-4-methyl-phenoxy]-acetic acid] | 
6 | 44000 | 7,300 | O=C(O)COc1cc(F)c(Br)cc1C(=O)NCc1cccc([N+](=O)[O-])c1 [Example 49, [4-Bromo-5-fluoro-2-(3-nitro-benzylcarbamoyl)-phenoxy]-acetic acid] | 
7 | 14000 | 2,000 | O=C(O)COc1cc(F)c(-c2ccccc2)cc1C(=O)NCc1cccc([N+](=O)[O-])c1 [Example 50, [5-(3-Nitro-benzylcarbamoyl)-2-fluoro-biphenyl-4-yloxy]-acetic acid] | 
11 | 12000 | 1,100 | O=C(O)COc1cc(F)c(-c2ccccc2)cc1C(=S)NCc1cccc([N+](=O)[O-])c1 [Example 51, [5-(3-Nitro-benzylthiocarbamoyl)-2-fluoro-biphenyl-4-yloxy]-acetic acid] | 
7 |  |  | N#Cc1cc(C(=O)NCc2cccc([N+](=O)[O-])c2)c(OCC(=O)O)cc1F [Example 52, [2-(3-Nitro-benzylcarbamoyl)-4-cyano-5-fluoro-phenoxy]-acetic acid] | 
7 | 54000 |  | O=C(O)COc1cc(F)c(N2CCOCC2)cc1C(=O)NCc1cccc([N+](=O)[O-])c1 [Example 53, [2-(3-Nitro-benzylcarbamoyl)-5-fluoro-4-morpholin-4-yl-phenoxy]-acetic acid] | 
15 | 17000 | 1,100 | O=C(O)COc1cc(F)ccc1C(=S)NCc1nc2c(F)c(F)cc(F)c2s1 [Example 55, {5-Fluoro-2-[(4,5,7-trifluoro-benzothiazol-2-ylmethyl)-thiocarbamoyl]-phenoxy}-acetic acid] | 
35 |  |  | O=C(O)COc1cc(Cl)ccc1C(=O)NCc1nc2cc(C(F)(F)F)ccc2s1 [Example 57, {5-Chloro-2-[(5-trifluoromethyl-benzothiazol-2-ylmethyl)-carbamoyl]-phenoxy}-acetic acid] | 
